PMC10761396, “Evaluation of new alternative methods for the identification of estrogenic, androgenic and steroidogenic effects: a comparative in vitro/in silico study” (Archives of Toxicology, 2023)
Where two headings read alike, the source gives them in different places.

Experiments:
H295R cells = test: H295R steroidogenesis assay (oestrogen and androgen production); format: cell-based, human; settings: for minimal effective concentration: Homo sapiens, NCI-H295R, 48 h
Experimental: The in vitro H295R Steroidogenesis Assay is based on the human adenocarcinoma cell line, NCI-H295R, in which the human steroidogenesis pathway is fully functional (OECD 2022). The effect of the test chemical on the production of 17β-estradiol and testosterone is measured using ERα CALUX and AR CALUX technology.
The test chemical was tested in two independent assays, each in triplicate.

ER = tested on: ER; set-up: method as in US EPA ToxCast; settings: ref US EPA ToxCast, cited from earlier work; for ToxCast 1: (Active assays), ER assay listed as active: each listed assay name = active-flagged assay
aromatase = test: ToxCast aromatase assays (TOX21_Aromatase_Inhibition) and final ToxCast call; format: cell-based; settings: for Final "true" call (ToxCast) Aromatase inhibition: from ToxCast assays; for ToxCast result: aromatase overall ToxCast call
Text: The performance of different in silico models for ED effects tends to be evaluated on single model for a single effect, such as ER or AR binding, agonism or antagonism (normally by the developer), or a limited number of models using multiple chemicals (Weyrich et al. [2022]). Multi-organisation collaborations have also evaluated multiple models for a specific effect e.g. ER (Mansouri et al. [2016]) and AR (Mansouri et al. [2020]) effects. Therefore, we have conducted a side-by-side comparison of multiple different in silico models covering three pathways in ED, namely ER, AR and aromatase inhibition and compared these with ToxCast-derived final calls, as well as with results from in vitro assays. The efficiency of the in silico models was evaluated as a metric for the ability of the in silico model to generate concrete predictions. […] In vivo data were available for some but not all chemicals; therefore, an evaluation of the performance of the methods was made by comparing the derived overall calls from in silico models with those from the ToxCast database. The final call for each chemical evaluated in the ToxCast assays was made by considering the active-flagged assays and the corresponding cytotoxicity levels, the ToxCast Pathway Model (Browne et al. [2015]) and the CERAPP Potency Level (Mansouri et al. [2016]) for ER effects and the ToxCast Pathway Model (Kleinstreuer et al. [2017]) for AR effects (see Online Resource 1 Supplementary Tables 2, 4 and 6 for the outcome of the ER, AR and aromatase ToxCast assays, additional literature and final calls for each chemical and target).
Aromatase represents only one enzyme involved in steroidogenesis (the conversion of androgens to oestrogens); therefore, the aromatase assay detects effects on 17β-oestradiol production only. […] It is a cell-based assay in which MCF-7 cells are incubated with the test chemical for 24 h before measuring aromatase activities indirectly via a luciferase-based reporter endpoint which is dependent on the binding of the oestradiol–ER complex to the oestrogen response element. A decrease in luciferase activity can occur as a result of direct inhibition of aromatase (preventing the production of oestradiol) or by preventing oestradiol from binding to the ER and thus the binding to the oestrogen RE which initiates the production of luciferase (Lui et al. [2008]).

AR = AR pathway model; ref Kleinstreuer et al (2017) 10.1021/acs.chemrestox.6b00347; cited from earlier work
ERα = target: T1, ERα (Homo sapiens, UniProt P03372); test: (anti-)ERα CALUX receptor transactivation assay; format: cell-based; set-up: expressed in transfected cells; host or cells: CALUX cells (U2-OS is named only for the cytotoxicity CALUX)
T1 sequence (P03372 1-595): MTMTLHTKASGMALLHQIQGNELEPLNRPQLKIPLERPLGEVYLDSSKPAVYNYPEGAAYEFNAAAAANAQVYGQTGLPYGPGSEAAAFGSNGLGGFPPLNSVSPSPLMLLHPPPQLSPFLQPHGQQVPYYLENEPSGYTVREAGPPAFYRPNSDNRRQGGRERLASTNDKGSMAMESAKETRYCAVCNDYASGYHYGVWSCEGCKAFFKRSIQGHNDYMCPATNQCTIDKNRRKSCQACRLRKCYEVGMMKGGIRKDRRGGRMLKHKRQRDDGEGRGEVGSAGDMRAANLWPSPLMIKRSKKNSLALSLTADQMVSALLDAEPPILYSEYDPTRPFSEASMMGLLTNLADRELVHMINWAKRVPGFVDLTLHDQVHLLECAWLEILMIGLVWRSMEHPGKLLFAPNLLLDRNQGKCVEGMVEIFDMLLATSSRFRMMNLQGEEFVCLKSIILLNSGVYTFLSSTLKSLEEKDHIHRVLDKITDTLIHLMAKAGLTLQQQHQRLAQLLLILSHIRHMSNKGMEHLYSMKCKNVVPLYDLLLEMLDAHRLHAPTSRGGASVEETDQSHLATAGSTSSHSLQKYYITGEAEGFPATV
Experimental: The human CALUX® assays were used to measure the impact of test compounds on estrogen and androgen pathways. […] Chemicals can activate (or inactivate, in the case of an antagonistic activity) a ligand-specific pathway by binding to the receptor (ER, AR), after which the receptor-ligand complex binds to specific DNA REs […], resulting in increased (or decreased) cellular expression of a marker protein (e.g., luciferase).
Chemicals were dissolved and diluted in DMSO. […] The cytotoxicity of each test chemical was assessed using the U2-OS based cytotoxicity CALUX bioassay. Concentrations causing >20% reduction of luminescence were considered cytotoxic. […] Luciferase production was quantified by measuring luminescence following addition of luciferin. For antagonist assays, a fixed concentration of receptor agonist was co-incubated with a range of concentrations of the test chemical. […] For the AR assays, dihydrotestosterone was the positive control for agonistic effects and flutamide was the positive control for antagonist effects.
Each test chemical was tested in triplicates in two independent experiments.

[1] = read-out: Steroidogenesis Androgenicity LEC
[2] = read-out: Steroidogenesis Estrogenicity LEC

Row | SMILES | minimal effective concentration (H295R cells; [1]) | ToxCast 1: (Active assays), positive/total ER assays (ER) | ToxCast conclusion from assays result (ER) | Final "true" call (ToxCast) Aromatase inhibition (aromatase) | ToxCast Pathway Model (AUC) (AR) | minimal effective concentration (H295R cells; [2]) | ToxCast 1: (Active assays), ER assay listed as active (ER; assay TOX21_ERa_BLA_Antagonist_ratio) | ToxCast 1: (Active assays), ER assay listed as active (ER; assay TOX21_ERa_BLA_Antagonist_viability) | ToxCast result (aromatase) | LEC, androgen production (H295R cells; decrease) | androgen production, fold of control (H295R cells; highest concentration tested, 100 µM) | Lowest Effective Concentration (LEC), ER agonism (ERα) | ToxCast 1: (Comments) (ER; for the assay named in the same line)
1 | CC(C)(C)CC(C)(C)c1ccc(O)cc1 [4-TO, 4-tert-octylphenol] | > 1 µM | 20/21 positive | Endocrine Disruption Potential.Significant Estrogen Receptor activity seen | Inconclusive | AUC = 0.23 as agonist, then there is a significant interaction. |  |  |  |  |  |  |  | 
2 | CCCCN(CCCC)c1ccc(C(=O)c2ccccc2C(=O)O)c(O)c1 [DBABA, 2-[4-(dibutylamino)-2-hydroxybenzoyl]benzoic acid] | > 10 µM | 2/6 positive | Endocrine Disruption Potential.Significant Estrogen Receptor activity seen | Negative |  | > 10 µM | TOX21_ERa_BLA_Antagonist_ratio | TOX21_ERa_BLA_Antagonist_viability | Negative |  |  |  | 
3 | O=c1c(-c2ccc(O)cc2)coc2cc(O)ccc12 [Daidzein, daidzein] | 0.794 µM |  | Endocrine Disruption Potential.Significant Estrogen Receptor activity seen | Negative | AUC = 0, then there is no significant interaction. | > 3.16 µM |  |  | Negative | 0.77 µM | 0.06 fold of control | 0.1 µM | 
4 | C[C@]12CCC(=O)C[C@@H]1CC[C@@H]1[C@@H]2CC[C@@]2(C)[C@H]1CC[C@]2(C)O [Mestanolone, mestanolone, reference compound] | > 0.00316 µM | 2/6 positive | Endocrine Disruption Potential.Significant Estrogen Receptor activity seen | Negative |  | > 0.1 µM |  |  | Negative |  |  | 0.028 µM | High active
